In patent US20060057104A1, “Methods for stimulating tlr irf3 pathways for inducing anti-microbial, anti-inflammatory and anticancer responses” (THE Regents of the University of California Office of the …, priority 2002, published 2006):

Test system: BMMs
Assay: Q-PCR gene expression in BMMs stimulated with TLR agonists (Example 1)
Format: cell-based, murine
Conditions: for immediate early upregulation of IFNβ, IP10 and RANTES: BMMs, lipid A 1 ng/mL, PGN 10 μg/mL, poly I:C 1 μg/ml, CpG 100 nM, 1 hr
Protocol: (C) BMM's were stimulated with the following TLR-agonists: lipid A (1 ng/mL), peptidoglycan (PGN) (10 μg/mL), poly I:C (I μg/ml), or CpG (100 nM) for 30 min, and cell extracts were used for an in vitro kinase assay using GST-c-jun as a substrate (upper left), identical simulations were repeated for I hr, and RNA was harvested, and used for Q-PCR analysis.
(A) BMMs were stimulated for the indicated time points with the following TLR-agonists: lipid A (1 ng/ml), PGN (20 μg/ml), poly I:C (1 μg/ml), or CpG (100 nM), and RNA was harvested and used for Q-PCR analysis.
Murine bone marrow-derived macrophages (BMMs) were differentiated from marrow from 6-10 week old C57B/6 mice as previously described (Chin, A. I., Dempsey, P. W., Beuhn, K., Miller, J. F., Xu, Y., and Cheng, G. (2002), Nature 416, 190-194). BMMs were maintained in 1× DMEM, 10% fetal bovine serum, 1% penicillin/streptomycin, and 30% L929 conditioned medium, and purity was assayed to be 94-99% CD11b^+. The RAW 264.7 murine macrophage cell line (ATCC: TIB-71) was maintained in 1× DMEM with 10% fetal bovine serum and 1% penicillin/streptomycin. […]
RNA was isolated for both Northern blotting and quantitative real-time PCR (Q-PCR) using a standard guanidium isothiocyanate method. […] For Q-PCR, RNA was quantitated and 2 μg of RNA was used to make cDNA templates using Superscript II (Invitrogen) according the manufactuors instruction with either oligo-dT or random hexamer as primers. […]
We then investigated the TLR-specificity of gene expression in BMMs using specific agonists for TLR4 (lipid A), TLR2 (peptioglycan), TLR3 (poly I:C) and TLR9 (CpG). In order to account for differences in binding affinity and receptor expression, the concentrations of TLR ligands used for stimulation were titrated to produce roughly equivalent activation of the JNK pathway as determined by GST-c-Jun in vitro kinase assay (FIG. 2C, upper left).

Row | Substance | gene induction in TLR4-null BMMs (BMMs from C57BL/10ScCr mice (null mutation in TLR4 gene)) | immediate early upregulation of IFNβ, IP10 and RANTES
1 | lipid A | No gene induction | immediate early upregulation
2 | poly I:C |  | immediate early upregulation
